Experiment: Residual antioxidant activity (ABTS^+) upon exposure to UV-irradiated TiO2
Format: physicochemical
Details: FIG. 6
Description: Exposure of enzymes to UV-irradiated TiO2: Enzyme (0.8 mg protein/mL, total 10 mL in 25 mM phosphate buffer, pH 7.5) was placed in an open scintillation vial. TiO2 fine powder (0.25 mg/mL) was added to the protein solution and the suspension was stirred gently at room temperature (25° C.) with a magnetic stir bar placed inside the vial. The enzyme-TiO2 suspension was placed under a […] UV lamp (model No. B-100AP, UVP, San Gabriel, Calif.). The distance between the UV lamp and the vial was 18 cm. At this distance, the UV irradiance at 365 nm (λmax) was 8 mW/cm^2 (determined using a […]® UV meter (Model No. J-221). It was also verified that there was no thermal denaturation of the enzyme during irradiation and the temperature of the enzyme-TiO2 suspension remained constant (25±2° C.) throughout. Exposure of antioxidants to UV-irradiated TiO2: Trolox (0.01 mg/mL) was dissolved in 10 mL phosphate buffer (25 mM, pH 7.5). TiO2 (0.25 mg/mL) was added to the Trolox solution. The suspension was stirred and irradiated with UV as described above. At 30 min intervals, 1 mL aliquots were removed from the irradiating suspension and filtered through a 0.2 μm filter. […] Determination of residual antioxidant activity: Antioxidant activities of modified enzymes and the modifiers were measured according to the following modification of the assay reported by Re et al. Re, […].; Yang, M.; Rice-Evans, C. […]

loss of free radical absorbing activity during the first hour of photooxidation (TiO2-UV): 80%
Compound: Cc1c(C)c2c(c(C)c1O)CCC(C)(C(=O)O)O2 (stereo not shown) [Trolox, 6-hydroxy-2,5,7,8-tetramethylchroman-2-carboxylic acid]
